Source: patent US6586422B2, “Pyrazine and triazine derivatives of 1,2,4,5-tetrahydro-Benzo or Thieno [d] azepine” (Hoffman-La Roche Inc., priority 2000, dated 2003)
pIC50: −log10 of the molar value.

Target: T1, rat mGluR1a receptor (Rattus norvegicus, UniProt P23385)
T1 construct: expressed in transfected cells; host or cells: HEK 293 cells (transient transfection; membranes used)
Assay: Binding assay for the characterization of mGluR 1 antagonistic properties (tritiated radioligand displacement, membranes of transfected HEK 293 cells)
Conditions: membranes of HEK 293 cells transiently transfected with rat mGluR1a; radioligand 3 nM; 1 hour at room temperature; read-out: B-IC50
Method: Binding Assay for the Characterization of mGluR 1 Antagonistic Properties
Binding assay with tritiated 1-ethyl-2-methyl-6-oxo-4-(1,1,2-tritritio-1,2,4,5-tetrahydro-benzo[d]azepin-3-yl)-1,6-dihydro-pyrimidine-5-carbonitrile (Eur. Pat. Appl. EP 1 074 549 A2): HEK 293 cells were transiently transfected with the rat mGluR1a receptor. The cells were collected and washed 3 times with PBS. The cell pellets were frozen at −80° C. Membranes were prepared from HEK 293 cells transfected with the rat mGluR1a receptor and used in the binding experiments at 10 μg proteins per assay after resuspension in a HEPES NaOH 20 mM, pH=7.4 binding buffer. 1-Ethyl-2-methyl-6-oxo-4-(1,1,2-tritritio-1,2,4,5-tetrahydro-benzo[d]azepin-3-yl)-1,6-dihydro-pyrimidine-5-carbonitrile (S.A 33.4 Ci/mmol) was used at 3 nM final concentration. The incubation with variable concentrations of potential inhibitors was performed for 1 hour at room temperature, the incubate was then filtered onto GF/B glass fiber filter preincubated 1 hour in PEI 0,1% and washed 3 times with 1 ml of cold binding buffer. The radioactivity retained on the unifilter 96 was counted using a Topcount β counter. After correction for non specific binding the data were normalized and the IC50 value calculated using a 4 parameters logistic equation which was fitted to the inhibition curve.

T1 sequence (P23385 19-1199): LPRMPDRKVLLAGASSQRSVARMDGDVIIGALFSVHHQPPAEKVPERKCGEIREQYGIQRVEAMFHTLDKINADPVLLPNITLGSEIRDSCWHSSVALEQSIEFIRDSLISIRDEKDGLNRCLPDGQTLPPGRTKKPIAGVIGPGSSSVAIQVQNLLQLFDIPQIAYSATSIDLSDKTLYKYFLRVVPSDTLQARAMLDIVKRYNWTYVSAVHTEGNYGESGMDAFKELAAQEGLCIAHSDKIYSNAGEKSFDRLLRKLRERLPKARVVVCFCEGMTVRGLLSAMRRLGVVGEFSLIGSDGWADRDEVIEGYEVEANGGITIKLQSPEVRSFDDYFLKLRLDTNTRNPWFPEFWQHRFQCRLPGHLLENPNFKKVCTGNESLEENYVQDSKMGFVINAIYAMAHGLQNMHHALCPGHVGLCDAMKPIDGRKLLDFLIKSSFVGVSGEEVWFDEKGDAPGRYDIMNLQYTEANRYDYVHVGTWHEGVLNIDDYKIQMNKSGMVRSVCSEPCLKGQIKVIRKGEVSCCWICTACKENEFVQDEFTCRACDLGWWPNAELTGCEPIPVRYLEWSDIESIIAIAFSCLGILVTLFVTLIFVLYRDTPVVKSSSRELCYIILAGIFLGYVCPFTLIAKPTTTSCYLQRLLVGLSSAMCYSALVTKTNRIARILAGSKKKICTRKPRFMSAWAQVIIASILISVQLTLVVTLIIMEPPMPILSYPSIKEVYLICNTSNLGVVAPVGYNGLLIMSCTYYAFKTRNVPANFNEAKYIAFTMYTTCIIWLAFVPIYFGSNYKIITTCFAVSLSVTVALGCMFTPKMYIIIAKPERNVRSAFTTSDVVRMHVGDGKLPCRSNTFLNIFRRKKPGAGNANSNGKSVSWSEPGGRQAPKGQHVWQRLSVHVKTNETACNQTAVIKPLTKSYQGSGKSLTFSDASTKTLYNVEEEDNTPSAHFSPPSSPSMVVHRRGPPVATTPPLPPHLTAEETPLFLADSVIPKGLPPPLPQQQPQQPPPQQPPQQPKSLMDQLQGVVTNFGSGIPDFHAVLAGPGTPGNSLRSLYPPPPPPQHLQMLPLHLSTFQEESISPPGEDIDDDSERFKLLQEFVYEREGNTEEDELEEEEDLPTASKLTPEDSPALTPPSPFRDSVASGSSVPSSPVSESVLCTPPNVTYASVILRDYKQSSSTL

pIC50 | SMILES
7.57 | N#Cc1nnc(N)nc1N1CCc2ccccc2CC1 [Example 2, 3-Amino-5-(1,2,4,5-tetrahydro-benzo[d]azepin-3-yl)-[1,2,4]triazine-6-carbonitrile]
6.33 | N#Cc1nccnc1N1CCc2ccccc2CC1 [Example 13, 3-(1,2,4,5-Tetrahydro-benzo[d]azepin-3-yl)-pyrazine-2-carbonitrile]
5.52 | COCCOc1nnc(C#N)c(N2CCc3ccccc3CC2)n1 [Example 1, 3-(2-Methoxy-ethoxy)-5-(1,2,4,5-tetrahydro-benzo[d]azepin-3-yl)-[1,2,4]triazine-6-carbonitrile]
7.51 | N#Cc1nnc(NCCO)nc1N1CCc2ccccc2CC1 [Example 5, 3-(2-Hydroxy-ethylamino)-5-(1,2,4,5-tetrahydro-benzo[d]azepin-3-yl)-[1,2,4]triazine-6-carbonitrile]
5.86 | CN(C)c1nnc(C#N)c(N2CCc3ccccc3CC2)n1 [Example 3, 3-Dimethylamino-5-(1,2,4,5-tetrahydro-benzo[d]azepin-3-yl)-[1,2,4]triazine-6-carbonitrile]
7.57 | CC(O)CNc1nnc(C#N)c(N2CCc3ccccc3CC2)n1 (racemic) [Example 6, (RS)-3-(2-Hydroxy-propylamino)-5-(1,2,4,5-tetrahydro-benzo[d]azepin-3-yl)-[1,2,4]triazine-6-carbonitrile]
7.57 | CC(C)(C)OC(=O)NCCNc1nnc(C#N)c(N2CCc3ccccc3CC2)n1 [Example 8, {2-[6-Cyano-5-(1,2,4,5-tetrahydro-benzo[d]azepin-3-yl)-[1,2,4]triazin-3-ylamino]-ethyl}-Carbamic Acid Tert-Butyl Ester]
8.30 | N#Cc1nnc(NCC2CC2)nc1N1CCc2ccccc2CC1 [Example 4, 3-(Cyclopropylmethyl-amino)-5-(1,2,4,5-tetrahydro-benzo[d]azepin-3-yl)-[1,2,4]triazine-6-carbonitrile]
6.43 | N#Cc1nnc(NN)nc1N1CCc2ccccc2CC1 [Example 7, 3-Hydrazino-5-(1,2,4,5-tetrahydro-benzo[d]azepin-3-yl)-[1,2,4]triazine-6-carbonitrile]
7.54 | N#Cc1nnc(NCCc2cccnc2)nc1N1CCc2ccccc2CC1 [Example 9, 3-(2-Pyridin-3-yl-ethylamino)-5-(1,2,4,5-tetrahydro-benzo[d]azepin-3-yl)-[1,2,4]triazine-6-carbonitrile]
6.30 | N#Cc1ncc(NCCO)nc1N1CCc2ccccc2CC1 [Example 15, 5-(2-Hydroxy-ethylamino)-3-(1,2,4,5-tetrahydro-benzo[d]azepin-3-yl)-pyrazine-2-carbonitrile]
7.35 | Cc1nc(N2CCc3ccccc3CC2)c(C#N)nc1-c1ccccc1 [Example 14, 5-Methyl-6-phenyl-3-(1,2,4,5-tetrahydro-benzo[d]azepin-3-yl)-pyrazine-2-carbonitrile]
